pIC50: −log10 of the molar value.
Key:
[1] = tested on: calf thymus DNA (CT-DNA); assay: DNA thermal denaturation (melting) studies; format: binding; settings: CT-DNA 100 μM DNAp, compound 20 μM, 37 °C; for Induced ΔTm after incubation 0 hours: pH 7.00, 0 hours; for Induced ΔTm after incubation 4 hours: pH 7.00, 4 hours; for Induced ΔTm after incubation 18 hours: pH 7.00, 18 hours; for Induced ΔTm after incubation 72 hours: pH 7.00, 72 hours
Method in brief: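 CT-DNA at 100 μM (50 μM bp) with test compound at 20 μM in pH 7.00 10 mM sodium phosphate/1 mM EDTA, preincubated at 37.0 °C for 0–18 h (up to 72 h for some compounds). Absorbance at 260 nm, heated 1 °C/min over 45–98 °C; Tm from melting-profile midpoint, ΔTm versus free DNA, MeOH-corrected, mean±SD of ≥3.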

[2] = tested on: 170 bp sequence of the human Topo-IIa promoter; assay: DNase I footprinting on Topo-IIa promoter (ICB1, ICB2 sites); format: binding; settings: for Concentration at which DNA binding is observed, ICB1: ICB1 site; for Concentration at which DNA binding is observed, ICB2: ICB2 site
Method: In a similar manner to Example 4, the affinity and sequence selectivity of certain compounds of examples 1 and 2 was evaluated by standard DNA footprinting on a 170 bp sequence of the human Topo-IIa promoter, in accordance with the technique described in Martin, C., et al.
Selected results are shown in FIG. 9, wherein the concentrations of the lanes were 0, 1.6, 8, 40, 200, 1000, 5000 and 25000 nM in each case.
The footprinting results allowed the identification of compounds that could potentially disrupt transcription factor binding at the ICB1 and ICB2 sites. […] These compounds are detailed below in table 3, showing the concentrations (μM) at which the PBD-heterocycle conjugates bind at ICB1 and ICB2.

[3] = tested on: NF-Y binding at ICB1 of Topoisomerase IIα promoter; assay: NF-Y gel shift assay (EMSA) at ICB1
[4] = tested on: NF-Y binding at ICB2 of Topoisomerase IIα promoter; assay: NF-Y gel shift assay (EMSA) at ICB2
[5] = tested on: human c-myc oncogene; settings: read-out: IC50 to arrest PCR of the c-myc gene; cited from earlier work
[6] = tested on: HIV-1 LTR; settings: read-out: IC50 to arrest PCR of the HIV gene; cited from earlier work

Compound	Induced ΔTm after incubation 0 hours [1] [°C]	Induced ΔTm after incubation 4 hours [1] [°C]	Induced ΔTm after incubation 18 hours [1] [°C]	Induced ΔTm after incubation 72 hours [1] [°C]	Concentration at which DNA binding is observed, ICB1 [2] [µM]	Concentration at which DNA binding is observed, ICB2 [2] [µM]	Lowest concentration at which NF-Y binding inhibition was observed [3]	Lowest concentration at which NF-Y binding inhibition was observed [4] [µM]	pIC50 [5]	pIC50 [6]
COC(=O)c1cc(NC(=O)c2cc(NC(=O)c3csc(NC(=O)CCCOc4cc5c(cc4OC)C(=O)N4CCC[C@H]4C=N5)n3)cn2C)cn1C [Compound 69]	16.4	17.4	18.2	18.5	5	5	50 µM	10	–	–
CCOC(=O)c1nc(NC(=O)c2nc(NC(=O)c3cc(NC(=O)CCCOc4cc5c(cc4OC)C(=O)N4CCC[C@H]4C=N5)cn3C)cn2C)cn1C [Compound 91]	16.8	17.6	18.7	18.8	5	5	did not inhibit NF-Y binding	50	–	–
Cn1cc(NC(=O)c2cc(NC(=O)c3cc(NC=O)cn3C)cn2C)cc1C(=O)NCCC(=N)N [distamycin A]	–	–	–	–	–	–	–	–	4.60	4.30
